The values below come from patent publication US12594276B2, “Inhibitors of human immunodeficiency virus replication” (ViiV Healthcare UK (No.5) Limited, priority 2024, dated 2026).

Molecules are shown by their SMILES. Like-named read-outs stand apart in the source and are kept apart here.

The subject of series [1] is recombinant NL4-3 virus (nef section replaced with Renilla luciferase gene) in MT-2 cells. Kind of series: HIV cell culture assay (antiviral activity, luciferase readout). It counts as cell-based. The note with it: Renilla, NL43, MT-2 cells infected for 4-5 days with recombinant NL4-3 Renilla luciferase virus. The method, boiled down: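 Reporter virus is produced in 293T cells and its titer set in MT-2 cells by luciferase activity. MT-2 cells are then infected in the presence of serially diluted compound for 4-5 days. Luciferase is quantified and EC50 fitted to the median effect equation.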

Series [2] is described as follows: Compound cytotoxicity, XTT-based colorimetric assay. The following applies: human. It counts as cell-based. The method, boiled down: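 Uninfected MT2 cells, antiviral-assay protocol without virus; XTT colorimetric readout day 4; CC50 reported.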
The mark [3] stands for this setting: uninfected MT2 cells, day 4, XTT, read-out: CC50.

In general, EC50 refers to the concentration giving half of the maximal effect. In general, CC50 refers to the concentration that lowers cell viability or growth by half. For the molecule `CS(=O)(=O)Nc1nn(CCN2CC[C@@H](F)C2)c2c(-n3c([C@H](Cc4cc(F)cc(F)c4)NC(=O)Cn4nc(C(F)F)c5c4C(F)(F)[C@@H]4C[C@H]54)nc4nc(C5CCC(F)(F)CC5)ccc4c3=O)ccc(Cl)c12` (atropisomer, axis not shown; (P)) [Example 208, N-[(1S)-1-[(3P)-3-(4-chloro-1-{2-[(3R)-3-fluoropyrrolidin-1-yl]ethyl}-3-methanesulfonamido-1H-indazol-7-yl)-7-(4,4-difluorocyclohexyl)-4-oxo-3H,4H-pyrido[2,3-d]pyrimidin-2-yl]-2-(3,5-difluorophenyl)ethyl]-2-[(2S,4R)-9-(difluoromethyl)-5,5-difluoro-7,8-diazatricyclo[4.3.0.0^2,^4]nona-1(6),8-dien-7-yl]acetamide], in series [1], the EC50 stood at 0.009 nM. Moreover, in series [2] (setting [3]), the CC50 at 4 days is greater than 50 nM.
With `Cc1cc(C2CCC(F)(F)CC2)nc2nc([C@H](Cc3cc(F)cc(F)c3)NC(=O)Cn3nc(C(F)F)c4c3C(F)(F)[C@@H]3C[C@H]43)n(-c3ccc(Cl)c4c(NS(C)(=O)=O)nn(CCN5CC(F)(F)C5)c34)c(=O)c12` (atropisomer, axis not shown; (P)) [Example 229, N-[(1S)-1-[(3P)-3-{4-chloro-1-[2-(3,3-difluoroazetidin-1-yl)ethyl]-3-methanesulfonamido-1H-indazol-7-yl}-7-(4,4-difluorocyclohexyl)-5-methyl-4-oxo-3H,4H-pyrido[2,3-d]pyrimidin-2-yl]-2-(3,5-difluorophenyl)ethyl]-2-[(2S,4R)-9-(difluoromethyl)-5,5-difluoro-7,8-diazatricyclo[4.3.0.0^2,4]nona-1(6),8-dien-7-yl]acetamide], the EC50 in series [1] turned out to be 0.013 nM. In addition, in series [2] (setting [3]), the cytotoxic concentration (CC50) at 4 days was greater than 50 nM.
As to `Cc1cc(C2CCC(F)(F)CC2)nc2nc([C@H](Cc3cc(F)cc(F)c3)NC(=O)Cn3nc(C4CC4)c4c3C[C@@H]3C[C@H]43)n(-c3ccc(Cl)c4c(NS(C)(=O)=O)nn(CCN5C[C@@H](C)O[C@@H](C)C5)c34)c(=O)c12` (atropisomer, axis not shown; (P)) [Example 230, N-[(1S)-1-[(3P)-3-(4-chloro-1-{2-[(2R,6S)-2,6-dimethylmorpholin-4-yl]ethyl}-3-methanesulfonamido-1H-indazol-7-yl)-7-(4,4-difluorocyclohexyl)-5-methyl-4-oxo-3H,4H-pyrido[2,3-d]pyrimidin-2-yl]-2-(3,5-difluorophenyl)ethyl]-2-[(2S,4S)-9-cyclopropyl-7,8-diazatricyclo[4.3.0.0^2,^4]nona-1(6),8-dien-7-yl]acetamide], the EC50 in series [1] came out at 0.006 nM. Besides, in series [2] (setting [3]), the CC50 at 4 days was greater than 50 nM.
For `Cc1cc(C2CCC(F)(F)CC2)nc2nc([C@H](Cc3cc(F)cc(F)c3)NC(=O)Cn3nc(C(F)F)c4c3C(F)(F)[C@@H]3C[C@H]43)n(-c3ccc(Cl)c4c(NS(C)(=O)=O)nn(CCN5CCC(F)(F)C5)c34)c(=O)c12` (atropisomer, axis not shown; (P)) [Example 231, N-[(1S)-1-[(3P)-3-{4-chloro-1-[2-(3,3-difluoropyrrolidin-1-yl)ethyl]-3-methanesulfonamido-1H-indazol-7-yl}-7-(4,4-difluorocyclohexyl)-5-methyl-4-oxo-3H,4H-pyrido[2,3-d]pyrimidin-2-yl]-2-(3,5-difluorophenyl)ethyl]-2-[(2S,4R)-9-(difluoromethyl)-5,5-difluoro-7,8-diazatricyclo[4.3.0.0^2,^4]nona-1(6),8-dien-7-yl]acetamide], in that order: 0.01 nM and greater than 50 nM.
Consider `Cc1cc(C2CCC(F)(F)CC2)nc2nc([C@H](Cc3cc(F)cc(F)c3)NC(=O)Cn3nc(C4CC4)c4c3C[C@@H]3C[C@H]43)n(-c3ccc(Cl)c4c(NS(C)(=O)=O)nn(CCN5CCC(F)(F)C5)c34)c(=O)c12` (atropisomer, axis not shown; (P)) [Example 232, N-[(1S)-1-[(3P)-3-{4-chloro-1-[2-(3,3-difluoropyrrolidin-1-yl)ethyl]-3-methanesulfonamido-1H-indazol-7-yl}-7-(4,4-difluorocyclohexyl)-5-methyl-4-oxo-3H,4H-pyrido[2,3-d]pyrimidin-2-yl]-2-(3,5-difluorophenyl)ethyl]-2-[(2S,4S)-9-cyclopropyl-7,8-diazatricyclo[4.3.0.0^2,^4]nona-1(6),8-dien-7-yl]acetamide], for which the EC50 in series [1] was determined as 0.009 nM. The CC50 at 4 days in series [2] (setting [3]) is greater than 50 nM.
For `COCCOCCn1nc(NS(C)(=O)=O)c2c(Cl)ccc(-n3c([C@H](Cc4cc(F)cc(F)c4)NC(=O)Cn4nc(C5CC5)c5c4C[C@@H]4C[C@H]54)nc4nc(C5CCC(F)(F)CC5)ccc4c3=O)c21` (atropisomer, axis not shown; (P)) [Example 237, N-[(1S)-1-[(3P)-3-{4-chloro-3-methanesulfonamido-1-[2-(2-methoxyethoxy)ethyl]-1H-indazol-7-yl}-7-(4,4-difluorocyclohexyl)-4-oxo-3H,4H-pyrido[2,3-d]pyrimidin-2-yl]-2-(3,5-difluorophenyl)ethyl]-2-[(2S,4S)-9-cyclopropyl-7,8-diazatricyclo[4.3.0.0^2,^4]nona-1(6),8-dien-7-yl]acetamide], in that order: 0.006 nM and greater than 50 nM.
As for `CS(=O)(=O)Nc1nn(CCN2CCC(F)(F)CC2)c2c(-n3c([C@H](Cc4cc(F)cc(F)c4)NC(=O)Cn4nc(C5CC5)c5c4C[C@@H]4C[C@H]54)nc4nc(C5CCC(F)(F)CC5)c(F)cc4c3=O)ccc(Cl)c12` (atropisomer, axis not shown; (P)) [Example 239, N-[(1S)-1-[(3P)-3-{4-chloro-1-[2-(4,4-difluoropiperidin-1-yl)ethyl]-3-methanesulfonamido-1H-indazol-7-yl}-7-(4,4-difluorocyclohexyl)-6-fluoro-4-oxo-3H,4H-pyrido[2,3-d]pyrimidin-2-yl]-2-(3,5-difluorophenyl)ethyl]-2-[(2S,4S)-9-cyclopropyl-7,8-diazatricyclo[4.3.0.0^2,^4]nona-1(6),8-dien-7-yl]acetamide], in series [1], the EC50 is 0.021 nM. For the same molecule, the CC50 at 4 days in series [2] (setting [3]) is greater than 50 nM.
Take `C[C@@H]1CN(CCn2nc(NS(C)(=O)=O)c3c(Cl)ccc(-n4c([C@H](Cc5cc(F)cc(F)c5)NC(=O)Cn5nc(C6CC6)c6c5C[C@@H]5C[C@H]65)nc5nc(C6CCC(F)(F)CC6)cc(C(F)F)c5c4=O)c32)C[C@H](C)O1` (atropisomer, axis not shown; (P)) [Example 240, N-[(1S)-1-[(3P)-3-(4-chloro-1-{2-[(2R,6S)-2,6-dimethylmorpholin-4-yl]ethyl}-3-methanesulfonamido-1H-indazol-7-yl)-7-(4,4-difluorocyclohexyl)-5-(difluoromethyl)-4-oxo-3H,4H-pyrido[2,3-d]pyrimidin-2-yl]-2-(3,5-difluorophenyl)ethyl]-2-[(2S,4S)-9-cyclopropyl-7,8-diazatricyclo[4.3.0.0^2,^4]nona-1(6),8-dien-7-yl]acetamide]: the EC50 in series [1] came out at 0.026 nM. Also, the half-maximal cytotoxic concentration (CC50) at 4 days in series [2] (setting [3]) is greater than 50 nM.
For `COCCOCCn1nc(NS(C)(=O)=O)c2c(Cl)ccc(-n3c([C@H](Cc4cc(F)cc(F)c4)NC(=O)Cn4nc(C(F)F)c5c4C(F)(F)[C@@H]4C[C@H]54)nc4nc(C5CCC(F)(F)CC5)ccc4c3=O)c21` (atropisomer, axis not shown; (P)) [Example 241, N-[(1S)-1-[(3P)-3-{4-chloro-3-methanesulfonamido-1-[2-(2-methoxyethoxy)ethyl]-1H-indazol-7-yl}-7-(4,4-difluorocyclohexyl)-4-oxo-3H,4H-pyrido[2,3-d]pyrimidin-2-yl]-2-(3,5-difluorophenyl)ethyl]-2-[(2S,4R)-9-(difluoromethyl)-5,5-difluoro-7,8-diazatricyclo[4.3.0.0^2,^4]nona-1(6),8-dien-7-yl]acetamide], in that order: 0.018 nM and greater than 50 nM.
Take `Cc1cc(C2CCC(F)(F)CC2)nc2nc([C@H](Cc3cc(F)cc(F)c3)NC(=O)Cn3nc(C4CC4)c4c3C[C@@H]3C[C@H]43)n(-c3ccc(Cl)c4c(NS(C)(=O)=O)nn(CCN5[C@@H]6CC[C@H]5CC(F)(F)C6)c34)c(=O)c12` (atropisomer, axis not shown; (P)) [Example 245]: in series [1], the 50% effective concentration (EC50) came to 0.019 nM. In series [2], this molecule registered a CC50 at 4 days greater than 50 nM.
The like results for `Cc1cc(C2CCC(F)(F)CC2)nc2nc([C@H](Cc3cc(F)cc(F)c3)NC(=O)Cn3nc(C(F)F)c4c3C(F)(F)[C@@H]3C[C@H]43)n(-c3ccc(Cl)c4c(NS(C)(=O)=O)nn(CCN5[C@@H]6CC[C@H]5CC(F)(F)C6)c34)c(=O)c12` (atropisomer, axis not shown; (P)) [Example 246, N-[(1S)-1-[(3P)-3-(4-chloro-1-{2-[(1R,5S)-3,3-difluoro-8-azabicyclo[3.2.1]octan-8-yl]ethyl}-3-methanesulfonamido-1H-indazol-7-yl)-7-(4,4-difluorocyclohexyl)-5-methyl-4-oxo-3H,4H-pyrido[2,3-d]pyrimidin-2-yl]-2-(3,5-difluorophenyl)ethyl]-2-[(2S,4R)-9-(difluoromethyl)-5,5-difluoro-7,8-diazatricyclo[4.3.0.0^2,^4]nona-1(6),8-dien-7-yl]acetamide] were, in that order, 0.028 nM and greater than 50 nM.
Turning to `Cc1cc(C2CCC(F)(F)CC2)nc2nc([C@H](Cc3cc(F)cc(F)c3)NC(=O)Cn3nc(C(F)F)c4c3C(F)(F)[C@@H]3C[C@H]43)n(-c3ccc(Cl)c4c(NS(C)(=O)=O)nn(CCN5CC(F)(F)C(F)(F)C5)c34)c(=O)c12` (atropisomer, axis not shown; (P)) [Example 247, N-[(1S)-1-[(3P)-3-{4-chloro-3-methanesulfonamido-1-[2-(3,3,4,4-tetrafluoropyrrolidin-1-yl)ethyl]-1H-indazol-7-yl}-7-(4,4-difluorocyclohexyl)-5-methyl-4-oxo-3H,4H-pyrido[2,3-d]pyrimidin-2-yl]-2-(3,5-difluorophenyl)ethyl]-2-[(2S,4R)-9-(difluoromethyl)-5,5-difluoro-7,8-diazatricyclo[4.3.0.0^2,^4]nona-1(6),8-dien-7-yl]acetamide], the EC50 in series [1] came to 0.047 nM. Further, the CC50 at 4 days in series [2] (setting [3]) is greater than 50 nM.
